Laboratory results: patent US20240174690A1, “ANNULATED 2-AMINO-3-CYANO THIOPHENES AND DERIVATIVES FOR THE TREATMENT OF CANCER” (BOEHRINGER INGELHEIM INTERNATIONAL GMBH, priority 2021, published 2024)
≈ marks a conversion by molar mass, not a printed value. Where two headings read alike, the source gives them in different places.

Assays:
[1] = system: KRAS G12D-dependent Ba/F3 cells; assay: Ba/F3 proliferation assay, KRAS G12D; format: cell-based; settings: Mus musculus, BaF3, 72 h, AlamarBlue
In short: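 IL-3-independent Ba/F3 lines carrying retrovirally introduced KRAS G12C, G12D or G12V; puromycin withdrawn ~10 days before assay. Duplicate treatments, AlamarBlue fluorescence readout, curve-fit analysis.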

[2] = Solubility measurement (DMSO solution method), McIlvaine buffer pH 4.5 or 6.8; format: physicochemical; settings: aqueous buffer, kinetic from dmso stock, DMSO stock diluted to 250 μM, 24 h shaking at ambient temperature
In short: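 Filtrate concentration by LC-UV, calibrated to a known-concentration reference dissolved completely in acetonitrile/water (1:1). Samples came from 250 µM final dilutions of DMSO stock in pH 4.5 or 6.8 McIlvaine buffer, shaken 24 h at ambient temperature, then filtered.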

KRAS (G12D)::SOS1 = KRAS (G12D)::SOS1 (Homo sapiens (Human), UniProt P01116, G12D); assay: KRAS::SOS1 AlphaScreen binding assay, KRAS G12D
In short: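 Compounds (up to 100 μM, eleven fivefold dilutions in duplicate) were incubated 30 min with KRAS 1-169 (10 nM, or 7.5 nM for G12C), GST-SOS1 564-1049 (5 nM for G12D/G12C, 10 nM for others) and 10 μM GDP in PBS buffer with BSA and Tween. Donor/acceptor beads were then added for 60 min at room temperature, and IC50 came from a 4-parameter fit of the AlphaScreen signal.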

[3] = McIlvaine buffer pH 4.5, read-out: solubility pH 4.5
[4] = McIlvaine buffer pH 6.8, read-out: solubility pH 6.8

Sequence of KRAS (G12D)::SOS1 (P01116 other isoform, or with tags, fused parts or gaps G12D): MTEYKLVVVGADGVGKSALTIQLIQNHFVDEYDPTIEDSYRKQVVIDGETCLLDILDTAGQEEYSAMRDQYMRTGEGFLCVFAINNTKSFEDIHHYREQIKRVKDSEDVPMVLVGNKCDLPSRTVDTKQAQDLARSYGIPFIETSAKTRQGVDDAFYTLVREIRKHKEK

Row | Compound | IC50 [1] | solubility at 24 h [2, 3] | solubility at 24 h [2, 4] | IC50 (KRAS (G12D)::SOS1)
1 | C[C@H](Oc1cc(-n2cc3c(n2)CCN(C)C3)nc(-c2noc3c2CCC[C@@]32CCCc3sc(N)c(C#N)c32)n1)[C@@H]1CCCN1C [II-141] | 14 nM | 123 µg/mL (≈ 197 µM) | 83 µg/mL (≈ 133 µM) | 2 nM
2 | C[C@H](Oc1cc(-n2ccc(C3(O)COC3)n2)nc(-c2noc3c2CCC[C@@]32CCCc3sc(N)c(C#N)c32)n1)[C@@H]1CCCN1C [II-189] | 28 nM | > 152 µg/mL | 103 µg/mL (≈ 164 µM) | 2 nM
3 | C[C@H](Oc1cc(-n2cncc3ccnc2-3)nc(-c2onc3c2CCC[C@@]32CCCc3sc(N)c(C#N)c32)n1)[C@@H]1CCCN1C [I-14] | 18 nM | 41 µg/mL (≈ 67.5 µM) | < 1 µg/mL | 3 nM
4 | CO[C@H]1CCN(C)[C@@H]1[C@H](C)Oc1cc(-n2ccc(C(N)=O)n2)nc(-c2noc3c2CCC[C@@]32CCCc3sc(N)c(C#N)c32)n1 [II-201] | 18 nM | > 128 µg/mL | 6 µg/mL (≈ 9.53 µM) | 2 nM
5 | C[C@H](Oc1cc(N2CCNC[C@]23CCOC3)nc(-c2onc3c2CCC[C@@]32CCCc3sc(N)c(C#N)c32)n1)[C@@H]1CCCN1C [I-12] | 4 nM | > 152 µg/mL | 125 µg/mL (≈ 198 µM) | 1 nM
6 | C[C@H]1CNCCCN1c1cc(-n2ccnc2)nc(-c2noc3c2CCC[C@@]32CCCc3sc(N)c(C#N)c32)n1 [II-142] | 5860 nM | 86 µg/mL (≈ 159 µM) | 10 µg/mL (≈ 18.5 µM) | 25 nM
7 | CO[C@H]1CCN(C)[C@@H]1[C@H](C)Oc1cc(-n2ccc(CC(=O)NC(C)C)n2)nc(-c2noc3c2CCC[C@@]32CCCc3sc(N)c(C#N)c32)n1 [II-183] | 12 nM | 113 µg/mL (≈ 165 µM) | 4 µg/mL (≈ 5.83 µM) | 1 nM
8 | C[C@H](Oc1cc(N2CCNC3(CC3)C2)nc(-c2noc3c2CCC[C@@]32CCCc3sc(N)c(C#N)c32)n1)[C@@H]1C[C@@H](F)CN1C [II-165] | 3 nM | > 142 µg/mL | 49 µg/mL (≈ 79.2 µM) | 1 nM
9 | CO[C@H]1CCN(C)[C@@H]1[C@H](C)Oc1cc(-n2ccc(C(=O)N(C)C3COC3)n2)nc(-c2noc3c2CCC[C@@]32CCCc3sc(N)c(C#N)c32)n1 [II-199] | 16 nM | > 163 µg/mL | 9 µg/mL (≈ 12.9 µM) | 1 nM
10 | CO[C@H]1CCN(C)[C@@H]1[C@H](C)Oc1cc(-n2ccc(C(=O)N[C@@H](C)c3ccccn3)n2)nc(-c2noc3c2CCC[C@@]32CCCc3sc(N)c(C#N)c32)n1 [II-196] | 9 nM | 94 µg/mL (≈ 128 µM) | < 1 µg/mL | 1 nM
11 | C[C@H](Oc1cc(N2CCN(C)C3(COC3)C2)nc(-c2noc3c2CCC[C@@]32CCCc3sc(N)c(C#N)c32)n1)[C@@H]1C[C@@H](F)CN1C [II-148] | 14 nM | > 146 µg/mL | < 1 µg/mL | 1 nM
